Where a SMILES comes first, the peptide text is derived from it. [ ]: non-standard residue; d: D form. dTrp(2-Me) = Cc1[nH]c2ccccc2c1C[C@@H](N)C(=O)O; Trp(2-Me) = Cc1[nH]c2ccccc2c1C[C@H](N)C(=O)O; d2Nal = N[C@H](Cc1ccc2ccccc2c1)C(=O)O; GABA = NCCCC(=O)O
Assays:
Canis familiaris [1] = species: Canis familiaris; test: Compound is evaluated for elevated GH in beagles with peroral dose; type: functional; conditions: Canis lupus familiaris, po
[2] = Oral bioavailability measured in dogs; type: ADME, organism-based, Canis lupus familiaris; conditions: dog, in vivo
Rattus norvegicus [3] = species: Rattus norvegicus; test: In Vitro evaluation for growth hormone release from the pituitary incubates; type: functional
[4] = Half-life period measured in dogs; type: ADME, organism-based, Canis lupus familiaris; conditions: dog, in vivo
Rattus norvegicus [5] = species: Rattus norvegicus; test: Compound was evaluated for binding affinity, which binds with high affinity to membranes isolated from rat hypothalamus; type: functional
Canis familiaris [6] = test: Compound is evaluated for elevated GH in beagles with intravenous dose; type: functional; conditions: Canis lupus familiaris
Sus scrofa = species: Sus scrofa; test: Limited capacity to porcine pituitary membranes was evaluated; type: functional
Rattus norvegicus [7] = species: Rattus norvegicus; test: The concentration of binding sites was evaluated; type: functional
Homo sapiens = species: Homo sapiens; test: compound was evaluated for GH release; type: functional, organism-based
Rattus norvegicus [8] = species: Rattus norvegicus; test: compound was evaluated for GH release in the rat pituitary cell culture assay; type: functional; conditions: Pituitary gland cell
Rattus norvegicus [9] = test: Potency measured in an anesthetized rat model; type: functional, organism-based
Rattus norvegicus [10] = species: Rattus norvegicus; test: compound was evaluated for GH release in the rat; type: functional, organism-based
Rattus norvegicus [11] = test: Compound was measured for elevated levels of GH release in infant rats after administration subcutaneously at 300 ug/kg; type: functional, organism-based
Rattus norvegicus [12] = species: Rattus norvegicus; test: compound was evaluated for GH release in the rat; 10-30 ng/mL; type: functional, organism-based
Rattus norvegicus [13] = test: In Vivo efficacy was evaluated for growth hormone release; type: functional, organism-based
Rattus norvegicus [14] = test: Compound was tested for effective dose rquired for GH release following iv administration to 4-week old anesthetized Sprague-Dawley rats; type: functional
Rattus norvegicus [15] = species: Rattus norvegicus; test: In vitro efficacy was evaluated for growth hormone release
[16] = Compound was evaluated for percentage of Oral bioavailability in rats; type: ADME, organism-based; conditions: rat, in vivo, read-out: Bioavailabiility
Rattus norvegicus [17] = species: Rattus norvegicus; test: compound was evaluated for GH release in rat; type: functional, organism-based
Rattus norvegicus [18] = species: Rattus norvegicus; test: compound was evaluated for GH release in the rat pituitary cell; type: functional; conditions: Pituitary gland cell

With `CC(C)(N)C(=O)N[C@H](COCc1ccccc1)C(=O)N1CCC2(CC1)CN(S(C)(=O)=O)c1ccccc12` [IBUTAMOREN] the MED (Canis familiaris [1]) was 0.125 mg/kg, the bioavailability [2] was over 60% and the EC50 (Rattus norvegicus [3]) was 1.3 nM. It also gave a half-life [4] of 4.7 h, a Kd (Rattus norvegicus [5]) of 0.17 nM and an MED (Canis familiaris [6]) of 0.025 mg/kg. For the same compound, the Bmax (fM (mg of protein)-1) (Sus scrofa) was 8 and the Bmax (Rattus norvegicus [7]) was 8 fmol/mg.

For `C[C@@H]1NC(=O)[C@H](Cc2ccc3ccccc3c2)NC(=O)[C@@H](N)CCCCNC(=O)CC[C@H](C(=O)N[C@@H](CCCCN)C(N)=O)NC(=O)[C@@H](Cc2ccccc2)NC(=O)[C@@H](Cc2c[nH]c3ccccc23)NC1=O`, the EC50 (Homo sapiens) was 0.43 nM.

For `CNC(=O)Nc1ccccc1-c1ccc(CN2C(=O)[C@H](NC(=O)CC(C)(C)N)CCc3ccccc32)cc1`, the EC50 (Rattus norvegicus [8]) was 50 nM.

Compound `C[C@H](NC(=O)[C@@H](Cc1c[nH]c2ccccc12)NC(=O)[C@@H](N)Cc1c[nH]cn1)C(=O)N[C@@H](Cc1c[nH]c2ccccc12)C(=O)N[C@@H](CN[C@H](CO)CCCCN)Cc1ccccc1` has an EC50 (Rattus norvegicus [9]) of 0.5 nM.

Work on `NCCCC[C@H](NC(=O)[C@H](Cc1ccccc1)NC(=O)[C@@H](Cc1ccc2ccccc2c1)NC(=O)[C@@H](Cc1ccc2ccccc2c1)NC(=O)C1CCNCC1)C(N)=O` yielded an EC50 (Rattus norvegicus [10]) of 0.18 nM.

Compound `Cc1[nH]c2ccccc2c1C[C@H](NC(=O)[C@@H](Cc1c(C)[nH]c2ccccc12)NC(=O)[C@@H](Cc1c(C)[nH]c2ccccc12)NC(=O)CCCN)C(=O)N[C@@H](CCCCN)C(N)=O` (H-[GABA][dTrp(2-Me)][dTrp(2-Me)][Trp(2-Me)]K-NH2) has a Concentration (Rattus norvegicus [11]) of 200 ng/mL.

For `CC(C)(N)C(=O)N[C@H](Cc1c[nH]c2ccccc12)C(=O)N1CCc2ccc(S(N)(=O)=O)cc2C1`, the EC50 (Rattus norvegicus [8]) was 3 nM.

In the case of `C[C@H](NC(=O)[C@H](Cc1c[nH]c2ccccc12)NC(=O)[C@@H](N)Cc1ccc(O)cc1)C(=O)N[C@@H](Cc1c[nH]c2ccccc12)C(=O)N[C@H](Cc1ccccc1)C(N)=O`, the Concentration (Rattus norvegicus [12]) is reported as 30 ng/mL.

Compound `O=C(N[C@H](Cc1ccc2ccccc2c1)C(=O)N[C@@H](CO)Cc1c[nH]c2ccccc12)C1CCNCC1` has an EC50 (Rattus norvegicus [8]) of 10.6 nM.

`CC(C)(N)CC(=O)NC1CCc2ccccc2N(Cc2ccc(-c3ccccc3C(=O)O)cc2)C1=O` (configuration not stated) gave an EC50 (Rattus norvegicus [13]) of 3000 nM.

For `Cc1ccc(S(=O)(=O)Nc2ccc3c(c2)CCN(C(=O)[C@@H](Cc2c[nH]c4ccccc24)NC(=O)C(C)(C)N)C3)cc1`, the EC50 (Rattus norvegicus [8]) was 3 nM and the ED50 (Rattus norvegicus [14]) was over 10 mg/kg.

For `O=C(NC(Cc1c[nH]c2ccccc12)C(=O)N1CCC2(CCc3ccccc32)CC1)NC1CN2CCC1CC2` (configuration not stated) [SPIROPIPERIDINE], the IC50 (Rattus norvegicus [8]) was 50 nM.

`CNC(=O)Nc1ccccc1-c1ccc2c(c1)CCN(C(=O)[C@@H](Cc1c[nH]c3ccccc13)NC(=O)C(C)(C)N)C2` gave an EC50 (Rattus norvegicus [8]) of 100 nM.

`CC(C)(CC(=O)N[C@@H]1CCc2ccccc2N(Cc2ccc(-c3ccccc3C(N)=O)cc2)C1=O)NC[C@H](O)CO` showed an EC50 (Rattus norvegicus [15]) of 3 nM.

Work on `CC(C)(N)CC(=O)N[C@@H]1CCc2c(ccc3ccccc23)N(Cc2ccc(-c3ccccc3-c3nn[nH]n3)cc2)C1=O` yielded an EC50 (Rattus norvegicus [15]) of 4 nM and a bioavailability [16] of under 5%.

`CC(C)(N)C(=O)N[C@H](Cc1c[nH]c2ccccc12)C(=O)N1CCC[C@]2(CC(=O)c3ccccc3O2)C1` showed an EC50 (Rattus norvegicus [8]) of 1.8 nM.

Work on `C[C@H](N)C(=O)N[C@@H](Cc1c[nH]cn1)C(=O)N[C@H](Cc1ccc2ccccc2c1)C(=O)N[C@@H](C)C(=O)N[C@@H](Cc1c[nH]c2ccccc12)C(=O)N[C@H](Cc1ccccc1)C(=O)N[C@@H](CCCCN)C(N)=O` (H-AH[d2Nal]AW[dF]K-NH2) yielded an EC50 (Rattus norvegicus [17]) of 6 nM.

Compound `CSCC[C@@H](NC(=O)[C@H](Cc1ccccc1)NC(=O)CNC(=O)[C@H](Cc1c[nH]c2ccccc12)NC(=O)[C@@H](N)Cc1ccc(O)cc1)C(N)=O` has a Concentration (Rattus norvegicus [18]) of 10 µg/mL.

Reference: ChEMBL document CHEMBL1131057, “Peptidomimetic growth hormone secretagogues. Design considerations and therapeutic potential” (J Med Chem, 1998)
